In patent US20240034731A1, “AZA-QUINAZOLINE COMPOUNDS AND METHODS OF USE” (Iambic Therapeutics, Inc., priority 2022, published 2024):

Experiments:
CDK1/Cyclin B1 = CDK1/Cyclin B1 (Homo sapiens (Human), UniProt P06493); experiment: CDK1/Cyclin B1 ADP-Glo Kinase Assay; format: biochemical; settings: ADP-Glo, 80 uM ATP; read-out: CDK1 Cyclin B1 IC50
Method: CDK1/Cyclin B1 ADP-Glo Kinase Assay
(§1) The purpose of CDK1/Cyclin B1 assay is to evaluate the inhibition (% inhibition and IC50 values) of small molecule inhibitors by using a Luminescent based ADP-Glo assay. CDK1/Cyclin B1 catalyzes the production of ADP from ATP. ADP-Glo assay monitors ADP producing biochemical reactions. ADP-Glo is performed in 2 steps upon completion of kinase reaction: a combined termination of kinase reaction and depletion of remaining ATP in the first step, and conversion of generated ADP to ATP and the newly produced ATP to light output using luciferase/luciferin reaction in the second step. The luminescent signal generated is proportional to the ADP concentration produced and is correlated with the kinase activity. CDK1/Cyclin B1 was purchased from Carna (Cat 04-102). […] The assay was initiated with the addition of ATP-containing substrate solution, following a 30-minute pre-incubation of enzyme and inhibitor at room temperature in the reaction mixture. The reaction was stopped after 90 minutes at room temperature by the addition of 10 uL of ADP-GLO Reagent. After a 90 minute incubation, 20 uL of Kinase Detection Reagent was added. Samples were incubated for 40 minutes, after which plate well luminescence was measured on a Envision microplate reader. The IC50 determinations were made from a plot of the fractional velocity as a function of inhibitor concentration fit to the 4 parameters IC50 equation.

CDK2/Cyclin E1 = CDK2/Cyclin E1 (Homo sapiens (Human), UniProt P24941); experiment: CDK2/Cyclin E1 Full length ADP-Glo Kinase Assay; format: biochemical; settings: 20 uM ATP, read-out: CDK2/ CyclinE1 IC50
Method: CDK2/Cyclin E1 Full length ADP-Glo Kinase Assay
as §1, with “of CDK2/Cyclin E1” for “of CDK1/Cyclin B1”, “assay. CDK2/Cyclin E1 full length” for “assay. CDK1/Cyclin B1”, “activity. CDK2/Cyclin E1” for “activity. CDK1/Cyclin B1”, “from Eurofins” for “from Carna”, “(Cat 14-475M).” for “(Cat 04-102).”

CDK4/Cyclin D1 = CDK4/Cyclin D1 (Homo sapiens (Human), UniProt P11802); experiment: CDK4/Cyclin D1 CHEF Assay (AQT0258 peptide); format: biochemical; settings: 200 uM ATP, read-out: CDK4/ CyclinD1 AQT IC50
Sequence of CDK4/Cyclin D1 (P11802 whole entry): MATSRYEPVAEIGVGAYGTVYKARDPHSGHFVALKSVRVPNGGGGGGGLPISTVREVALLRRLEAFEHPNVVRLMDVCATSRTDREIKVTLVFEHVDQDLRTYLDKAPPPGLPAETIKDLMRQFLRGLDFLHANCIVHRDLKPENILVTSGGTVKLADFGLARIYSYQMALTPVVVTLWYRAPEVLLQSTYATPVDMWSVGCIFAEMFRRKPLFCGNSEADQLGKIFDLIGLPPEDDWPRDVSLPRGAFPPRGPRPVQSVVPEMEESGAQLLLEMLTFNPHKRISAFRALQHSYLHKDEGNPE
Sequence of CDK4/Cyclin D1 (P24385 whole entry partner): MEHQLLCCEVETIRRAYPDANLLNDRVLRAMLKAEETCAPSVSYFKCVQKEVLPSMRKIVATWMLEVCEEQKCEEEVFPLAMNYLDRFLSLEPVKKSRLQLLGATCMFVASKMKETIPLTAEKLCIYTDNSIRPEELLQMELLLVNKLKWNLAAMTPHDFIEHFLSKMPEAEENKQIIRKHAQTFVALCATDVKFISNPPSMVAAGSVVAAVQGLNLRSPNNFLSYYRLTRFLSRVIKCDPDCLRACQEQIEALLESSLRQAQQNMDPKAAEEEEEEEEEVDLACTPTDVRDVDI
Text: CDK4/Cyclin D1 CHEF Assay
The purpose of CDK4/Cyclin D1 assay is to evaluate the inhibition (% inhibition and IC50 values) of small molecule inhibitors by using a Chelation-Enhance Fluorescence (CHEF) assay. In a CHEF assay, phosphorylation of a peptide substrate results in proportional increase in fluorescence. CHEF kinase assay use peptide substrates containing a synthetic alpha-amino acid with a side chain bearing an 8-hydroxyquinoline derivative (sulfonamido-oxide, Sox). Upon phosphorylation of a nearby serine, threonine or tyrosine and in the presence of Mg(II), the spectral properties of the Sox residue are altered, emitting 485 nm wavelength light when excited with a 360 nm wavelength light source. CDK4/Cyclin D1 catalyzes the phosphoryl transfer to the SOX-labeled substrate peptide AQT0258 from Assayquant Technologies. […] The reaction was initiated with the addition of substrate solution, following a 30-minute pre-incubation of enzyme and inhibitor at 22° C. in the reaction mix. Reactions were allowed to proceed for 3 hrs at 22° C., followed by fluorescence read of the reaction. The IC50 determinations were made from a plot of the fractional velocity as a function of inhibitor concentration fit to the 4 parameters IC50 equation.

CDK6/Cyclin D3 = CDK6/Cyclin D3 (Homo sapiens (Human), UniProt Q00534); experiment: CDK6/Cyclin D3 ADP-Glo Kinase Assay; format: biochemical; settings: 100 uM ATP, read-out: CDK6/ CyclinD3 IC50
Sequence of CDK6/Cyclin D3 (Q00534 whole entry): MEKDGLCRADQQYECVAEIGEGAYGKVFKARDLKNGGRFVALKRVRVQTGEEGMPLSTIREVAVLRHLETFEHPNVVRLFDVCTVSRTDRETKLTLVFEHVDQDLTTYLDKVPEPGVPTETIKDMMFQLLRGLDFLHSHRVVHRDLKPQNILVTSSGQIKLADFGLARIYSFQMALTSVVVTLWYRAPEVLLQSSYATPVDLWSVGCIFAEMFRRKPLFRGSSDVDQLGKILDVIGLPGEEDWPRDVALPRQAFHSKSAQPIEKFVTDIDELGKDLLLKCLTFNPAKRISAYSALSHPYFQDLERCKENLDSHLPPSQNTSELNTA
Sequence of CDK6/Cyclin D3 (P30281 whole entry partner): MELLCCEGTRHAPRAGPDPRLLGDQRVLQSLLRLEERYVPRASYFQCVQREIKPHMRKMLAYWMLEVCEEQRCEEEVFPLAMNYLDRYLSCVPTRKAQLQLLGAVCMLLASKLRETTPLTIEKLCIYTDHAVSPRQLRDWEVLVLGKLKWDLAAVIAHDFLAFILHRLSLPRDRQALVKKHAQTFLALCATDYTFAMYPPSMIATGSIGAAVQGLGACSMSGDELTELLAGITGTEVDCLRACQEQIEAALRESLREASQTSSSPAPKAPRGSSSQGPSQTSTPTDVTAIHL
Method: CDK6/Cyclin D3 ADP-Glo Kinase Assay
The purpose of the CDK6/Cyclin D3 assay is to evaluate the inhibition (% inhibition and IC50 values) in the presence of small molecule inhibitors by using a Luminescent based ADP-Glo assay. CDK6/Cyclin D3 catalyzes the production of ADP from ATP. ADP-Glo assay monitors ADP producing biochemical reactions. ADP-Glo is performed in 2 steps upon completion of kinase reaction: a combined termination of kinase reaction and depletion of remaining ATP in the first step, and conversion of generated ADP to […] and the newly produced ATP to light output using luciferase/luciferin reaction in the second step. The luminescent signal generated is proportional to the ADP concentration produced and is correlated with the kinase activity CDK6/Cyclin D3 was purchased from Carna. […] The assay was initiated with the addition of ATP-containing substrate solution, following a 30-minute pre-incubation of enzyme and inhibitor at room temperature in the reaction mixture. The reaction was stopped after 90 minutes at room temperature by the addition of 10 uL of ADP-GLO Reagent. After a 90-minute incubation, 20 uL of Kinase Detection Reagent was added. Samples were incubated for 40 minutes, after which plate well luminescence was measured on a Envision microplate reader. The IC50 determinations were made from a plot of the fractional velocity as a function of inhibitor concentration fit to the 4 parameters IC50 equation.

MCF-7 cells = experiment: Cell Growth Inhibition, MCF-7 (CellTiterGlo, 6 days); format: cell-based; settings: Homo sapiens, MCF7, 144 h, MCF-7, 6-day treatment
Text: (§2) MCF-7 and OVCAR-3 cells were used to evaluate the anti-proliferation activity of the CDK inhibitors. MCF-7 (ATCC, HTB-22) cells are epithelial cells from a patient with ER+ metastatic adenocarcinoma. OVCAR-3 (ATCC, HTB-161) cells were derived from malignant ascites of a patient with ovarian cancer and are known to have CCNE1 amplification. Both cell lines were maintained in RPMI media supplemented with 10% fetal bovine serum. For cell growth inhibition assay, CDK inhibitors in DMSO solution were dispensed with either Echo 655 (Beckman Coulter) or Tecan D300e (HP) into 384-well plates (Corning #3765) and the 384-well plates were UV-sterilized prior to the assay. The inhibitors were typically tested in the 10-10,000 nM concentration range with half-log serial dilutions. MCF-7 or OVCAR-3 (500 cells/30 μL/well) were added to each well using Multidrop Combi (ThermoFisher) using standard cassettes. The assay plates with cells were cultured at 37° C., 5% CO2 for 6 days. At the end of the 6-day treatment, 30 μL of CellTiterGlo 2.0 (Promega) was added to each well and the luminescent signal was read using CLARIOstar plus (BMG). The percentage of cell growth inhibition (% CGI) was calculated using the following formula 00 CGI=100-100×luminescencesampie/luminescencecontroi. The half maximal inhibitory concentration (IC50) was determined by nonlinear curve fitting (four parameters, variable slope).

OVCAR-3 cells = experiment: Cell Growth Inhibition, OVCAR-3 (CellTiterGlo, 6 days); format: cell-based; settings: Homo sapiens, 144 h, OVCAR-3, 6-day treatment
Text: as §2

Sequence of CDK1/Cyclin B1 (P06493 whole entry): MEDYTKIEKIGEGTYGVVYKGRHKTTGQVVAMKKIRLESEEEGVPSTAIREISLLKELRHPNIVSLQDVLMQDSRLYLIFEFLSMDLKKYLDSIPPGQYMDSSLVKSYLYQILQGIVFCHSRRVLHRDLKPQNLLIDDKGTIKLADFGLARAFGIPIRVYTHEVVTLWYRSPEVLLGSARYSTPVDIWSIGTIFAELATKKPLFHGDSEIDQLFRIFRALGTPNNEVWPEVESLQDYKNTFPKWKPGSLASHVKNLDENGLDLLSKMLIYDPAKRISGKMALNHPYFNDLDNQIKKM
Sequence of CDK1/Cyclin B1 (P14635 whole entry partner): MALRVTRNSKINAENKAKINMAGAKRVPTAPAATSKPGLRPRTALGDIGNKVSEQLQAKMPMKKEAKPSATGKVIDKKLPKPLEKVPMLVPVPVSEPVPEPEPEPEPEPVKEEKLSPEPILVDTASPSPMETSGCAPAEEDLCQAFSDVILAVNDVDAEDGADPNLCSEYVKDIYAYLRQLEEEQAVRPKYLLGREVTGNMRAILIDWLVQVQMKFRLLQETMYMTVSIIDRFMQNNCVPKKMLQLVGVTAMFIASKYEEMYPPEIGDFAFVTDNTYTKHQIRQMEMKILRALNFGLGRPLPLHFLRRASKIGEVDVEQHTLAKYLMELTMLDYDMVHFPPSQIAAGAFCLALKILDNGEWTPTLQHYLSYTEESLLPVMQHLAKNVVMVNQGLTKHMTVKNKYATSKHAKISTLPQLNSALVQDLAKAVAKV

Row | IC50 (CDK1/Cyclin B1) | IC50 (CDK2/Cyclin E1) | IC50 (CDK4/Cyclin D1) | IC50 (CDK6/Cyclin D3) | IC50 (MCF-7 cells) | IC50 (OVCAR-3 cells) | SMILES
1 | > 2 µM | 0.2 to 0.5 µM | 0.2 to 0.5 µM | 0.2 to 0.5 µM | > 2 µM | > 2 µM | Cc1cc2cnc(Nc3ccc(N4CC5(CN(C)C5)C4)cc3)nc2c(N2CC3(C2)CS(=O)(=O)C3)n1 [Compound 30, 6-(6-methyl-2-((4-(6-methyl-2,6-diazaspiro[3.3]heptan-2-yl)phenyl)amino)pyrido[3,4-d]pyrimidin-8-yl)-2-thia-6-azaspiro[3.3]heptane 2,2-dioxide]
2 | > 2 µM | < 0.2 µM | > 2 µM | > 2 µM | > 2 µM | > 2 µM | Cc1cc2cnc(Nc3cnn(C4CN(CC#N)C4)c3)nc2c(N2CC3(CN(C)C3)C2)n1 [Compound 31, 2-(3-(4-((6-methyl-8-(6-methyl-2,6-diazaspiro[3.3]heptan-2-yl)pyrido[3,4-d]pyrimidin-2-yl)amino)-1H-pyrazol-1-yl)azetidin-1-yl)acetonitrile]
3 | 0.5 to 2 µM | < 0.2 µM | < 0.2 µM | < 0.2 µM | 0.5 to 2 µM | 0.5 to 2 µM | Cc1cc2cnc(NC3CCN(S(=O)(=O)C4CC4)CC3)nc2c(N2CC3(CNC3)C2)n1 [Compound 32, N-(1-(cyclopropylsulfonyl)piperidin-4-yl)-6-methyl-8-(2,6-diazaspiro[3.3]heptan-2-yl)pyrido[3,4-d]pyrimidin-2-amine]
4 | 0.5 to 2 µM | 0.2 to 0.5 µM | < 0.2 µM | < 0.2 µM | 0.5 to 2 µM | 0.5 to 2 µM | Cc1cc2cnc(Nc3cnn(C4CC5(C4)CN(C)C5)c3)nc2c(N2CCC3(C2)CC3(F)F)n1 (stereo not drawn) [Compound 33, 8-(1,1-difluoro-5-azaspiro[2.4]heptan-5-yl)-6-methyl-N-(1-(2-methyl-2-azaspiro[3.3]heptan-6-yl)-1H-pyrazol-4-yl)pyrido[3,4-d]pyrimidin-2-amine]
5 | 0.5 to 2 µM | < 0.2 µM | < 0.2 µM | < 0.2 µM | 0.5 to 2 µM | 0.5 to 2 µM | Cc1cc2cnc(Nc3ccc(N4CC5(CN(C)C5)C4)cc3)nc2c(N2CCC3(C2)CC3(F)F)n1 (stereo not drawn) [Compound 34, 8-(1,1-difluoro-5-azaspiro[2.4]heptan-5-yl)-6-methyl-N-(4-(6-methyl-2,6-diazaspiro[3.3]heptan-2-yl)phenyl)pyrido[3,4-d]pyrimidin-2-amine]
6 | > 2 µM | 0.2 to 0.5 µM | < 0.2 µM | < 0.2 µM | 0.5 to 2 µM | 0.5 to 2 µM | Cc1cc2cnc(Nc3ccc(N4CC5(CN(C)C5)C4)cc3)nc2c(N2CCC3(CCOCC3)C2)n1 [Compound 35, 6-methyl-N-(4-(6-methyl-2,6-diazaspiro[3.3]heptan-2-yl)phenyl)-8-(8-oxa-2-azaspiro[4.5]decan-2-yl)pyrido[3,4-d]pyrimidin-2-amine]
7 | > 2 µM | 0.2 to 0.5 µM | 0.2 to 0.5 µM | 0.5 to 2 µM | > 2 µM | > 2 µM | Cc1cc2cnc(Nc3cnn(CC4(N(C)C)CC4)c3)nc2c(N2CCC3(C2)CC3(F)F)n1 (stereo not drawn) [Compound 36, 8-(1,1-difluoro-5-azaspiro[2.4]heptan-5-yl)-N-(1-((1-(dimethylamino)cyclopropyl)methyl)-1H-pyrazol-4-yl)-6-methylpyrido[3,4-d]pyrimidin-2-amine]
8 | > 2 µM | 0.2 to 0.5 µM | > 2 µM | > 2 µM | > 2 µM | > 2 µM | Cc1cc2cnc(Nc3cc4c(cc3F)CN(S(C)(=O)=O)C4)nc2c(N2CC3(CNC3)C2)n1 [Compound 37, N-(6-fluoro-2-(methylsulfonyl)isoindolin-5-yl)-6-methyl-8-(2,6-diazaspiro[3.3]heptan-2-yl)pyrido[3,4-d]pyrimidin-2-amine]
9 | > 2 µM | < 0.2 µM | 0.5 to 2 µM | > 2 µM | > 2 µM | 0.5 to 2 µM | Cc1cc2cnc(Nc3cnn(CC4(N(C)C)CC4)c3)nc2c(N2CCC(C#N)(C3CC3)C2)n1 (stereo not drawn) [Compound 38, 3-cyclopropyl-1-(2-((1-((1-(dimethylamino)cyclopropyl)methyl)-1H-pyrazol-4-yl)amino)-6-methylpyrido[3,4-d]pyrimidin-8-yl)pyrrolidine-3-carbonitrile]
10 | > 2 µM | < 0.2 µM | < 0.2 µM | < 0.2 µM | 0.5 to 2 µM | 0.5 to 2 µM | Cc1cc2cnc(N[C@H]3CC[C@H](CN(C)C)CC3)nc2c(N2CCC3(C2)CC3(F)F)n1 (stereo partly drawn) [Compound 40, 8-(1,1-difluoro-5-azaspiro[2.4]heptan-5-yl)-N-((1r,4r)-4-((dimethylamino)methyl)cyclohexyl)-6-methylpyrido[3,4-d]pyrimidin-2-amine]
